{"source": "patent US4292317A", "about": "“1,4-Dihydro-quinoline-3-carboxylic acid derivatives, process for their preparation and compositions containing them” (Laboratorie Roger Bellon, priority 1977, dated 1981)", "key": {"in vivo": {"experiment": "in vivo", "details": "mouse, mice"}, "Pr. mirabilis Nig": {"system": "Pr. mirabilis Nig", "experiment": "M.I.C. in vitro, nutrient agar dilution", "assay_type": "cell-based", "details": "Proteus mirabilis, 18 h", "summary_of_the_method": "(§1)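 Agar dilution, medium pH 6.8 post-autoclave (120° C.); compound 0.05–100 μg/cm^3, factor-2 series. Inoculum: 10^-3 dilution of 18 h broth culture, multipoint inoculator. 37° C., 18 h. MIC = lowest conc. inhibiting growth.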"}, "S. enteritidis Danysz": {"system": "S. enteritidis Danysz", "experiment": "M.I.C. in vitro, nutrient agar dilution", "assay_type": "cell-based", "details": "Salmonella enterica, ENTERITIDIS, 18 h", "summary_of_the_method": "as §1"}, "Ps. aeruginosa A.22": {"system": "Ps. aeruginosa A.22", "experiment": "M.I.C. in vitro, nutrient agar dilution", "assay_type": "cell-based", "details": "Pseudomonas aeruginosa, A.22, 18 h", "summary_of_the_method": "as §1"}, "Esch. coli 111 B4": {"system": "Esch. coli 111 B4", "experiment": "M.I.C. in vitro, nutrient agar dilution", "assay_type": "cell-based", "details": "Escherichia coli, 18 h; Table III; Esch. coli 111 B4", "summary_of_the_method": "as §1"}, "Providentia 0223": {"system": "Providentia 0223", "experiment": "M.I.C. in vitro, nutrient agar dilution", "assay_type": "cell-based", "details": "18 h", "summary_of_the_method": "as §1"}, "B. subtilis": {"system": "B. subtilis", "experiment": "M.I.C. in vitro, nutrient agar dilution", "assay_type": "cell-based", "details": "Bacillus subtilis, 18 h", "summary_of_the_method": "as §1"}, "Esch. coli 95 I.S.M.": {"system": "Esch. coli 95 I.S.M.", "experiment": "M.I.C. in vitro, nutrient agar dilution", "assay_type": "cell-based", "details": "Escherichia coli, 95I.S.M., 18 h", "summary_of_the_method": "as §1"}, "Sh. sonnei I.P.S.": {"system": "Sh. sonnei I.P.S.", "experiment": "M.I.C. in vitro, nutrient agar dilution", "assay_type": "cell-based", "details": "Shigella sonnei, 18 h; Table III; Sh. sonnei I.P.S.; read-out: M.I.C.", "summary_of_the_method": "as §1"}, "Pr. vulgaris 12-53": {"system": "Pr. vulgaris 12-53", "experiment": "M.I.C. in vitro, nutrient agar dilution", "assay_type": "cell-based", "details": "Proteus vulgaris, 1253, 18 h", "summary_of_the_method": "as §1"}, "Pr. morganii A.236": {"system": "Pr. morganii A.236", "experiment": "M.I.C. in vitro, nutrient agar dilution", "assay_type": "cell-based", "details": "Morganella morganii, A.236, 18 h", "summary_of_the_method": "as §1"}, "Staph. 209 P": {"system": "Staph. 209 P", "experiment": "M.I.C. in vitro, nutrient agar dilution", "assay_type": "cell-based", "details": "18 h", "summary_of_the_method": "as §1"}, "Ps. aeruginosa 72.345": {"system": "Ps. aeruginosa 72.345", "experiment": "M.I.C. in vitro, nutrient agar dilution", "assay_type": "cell-based", "details": "Pseudomonas aeruginosa, 72.345, 18 h", "summary_of_the_method": "as §1"}, "Esch. coli 54.127 O.M.S.": {"system": "Esch. coli 54.127 O.M.S.", "experiment": "M.I.C. in vitro, nutrient agar dilution", "assay_type": "cell-based", "details": "Escherichia coli, 54.127O.M.S., 18 h", "summary_of_the_method": "as §1"}, "S. oranienburg 1066": {"system": "S. oranienburg 1066", "experiment": "M.I.C. in vitro, nutrient agar dilution", "assay_type": "cell-based", "details": "Salmonella enterica, 1066, 18 h", "summary_of_the_method": "as §1"}, "Staph. 9.144": {"system": "Staph. 9.144", "experiment": "M.I.C. in vitro, nutrient agar dilution", "assay_type": "cell-based", "details": "18 h", "summary_of_the_method": "as §1"}, "Bord. bronchis. 4.617": {"system": "Bord. bronchis. 4.617", "experiment": "M.I.C. in vitro, nutrient agar dilution", "assay_type": "cell-based", "details": "18 h", "summary_of_the_method": "as §1"}, "Klebs. pneum. 10.031": {"system": "Klebs. pneum. 10.031", "experiment": "M.I.C. in vitro, nutrient agar dilution", "assay_type": "cell-based", "details": "18 h", "summary_of_the_method": "as §1"}, "Arizona 6.211": {"system": "Arizona 6.211", "experiment": "M.I.C. in vitro, nutrient agar dilution", "assay_type": "cell-based", "details": "18 h", "summary_of_the_method": "as §1"}, "Strepto D.M. 19": {"system": "Strepto D.M. 19", "experiment": "M.I.C. in vitro, nutrient agar dilution", "assay_type": "cell-based", "details": "18 h", "summary_of_the_method": "as §1"}, "Serratia": {"system": "Serratia", "experiment": "M.I.C. in vitro, nutrient agar dilution", "assay_type": "cell-based", "details": "18 h", "summary_of_the_method": "as §1"}, "Salm. typhi 0901": {"system": "Salm. typhi 0901", "experiment": "microbe, parasite or virus in culture", "assay_type": "cell-based", "details": "Salmonella enterica, 18 h; Table III; Salm. typhi 0901", "summary_of_the_method": "as §1"}, "Strept. pyogenes A. 65 [1]": {"system": "Strept. pyogenes A. 65", "experiment": "Systemic infection in mice", "assay_type": "in vivo", "details": "Streptococcus pyogenes, A.65, po, 168 h", "procedure": "(§2) The activity of the compounds according to the invention against systemic infections in mice, caused by Staphylococcus 50,774, Streptococcus pyogenes A 65, Pseudomonas aeruginosa No. 12 and Escherichia coli P 5101, has been studied.\n(§3) The infections were set up by intraperitoneal injection of a suspension of the bacterial culture corresponding to the germ studied. The products were administered orally at the time of injection, and 6 hours later. […] Aureus and for 7 days for the other germs.\n(§4) Oxolinic acid was used as the reference substance."}, "[2]": {"system": "Pseudomonas aeruginosa No. 12", "experiment": "Systemic infection in mice", "assay_type": "in vivo", "details": "NO.12, po, 168 h", "procedure": "as §2, §3, §4"}, "Staph. aureus 50,774 [3]": {"system": "Staph. aureus 50,774", "experiment": "Systemic infection in mice", "assay_type": "in vivo", "details": "Staphylococcus aureus, po, 336 h", "procedure": "as §2, §3, §4"}, "Escherichia coli P 5101 [4]": {"system": "Escherichia coli P 5101", "experiment": "Systemic infection in mice", "assay_type": "in vivo", "details": "P5101, po, 168 h", "procedure": "as §2, §3, §4"}, "Strept. pyogenes A. 65 [5]": {"system": "Strept. pyogenes A. 65", "experiment": "M.I.C. for germ used in experimental infection", "assay_type": "cell-based", "details": "Streptococcus pyogenes, A.65, 18 h", "procedure": "(§5) After sterilisation at 120° C., the pH was 6.8.\n(§6) The minimum inhibitory concentrations (M.I.C.) were determined by dilution of the test compounds in this mixture, the concentration ranging from 0.05 to 100 μg/cm^3 in a geometric progression with a factor of 2.\n(§7) The inoculation of the dishes was carried out by means of a multiple inoculator with 10^-3 dilutions of 18 hour old broth cultures.\n(§8) The dishes were placed in an oven at 37° C. and the readings were taken afer an incubation time of 18 hours. The M.I.C. was taken as the lowest concentration which inhibited a culture."}, "[6]": {"system": "Pseudomonas aeruginosa No. 12", "experiment": "M.I.C. for germ used in experimental infection", "assay_type": "cell-based", "details": "NO.12, 18 h", "procedure": "as §5, §6, §7, §8"}, "Staph. aureus 50,774 [7]": {"system": "Staph. aureus 50,774", "experiment": "M.I.C. for germ used in experimental infection", "assay_type": "cell-based", "details": "Staphylococcus aureus, 18 h", "procedure": "as §5, §6, §7, §8"}, "Escherichia coli P 5101 [8]": {"system": "Escherichia coli P 5101", "experiment": "M.I.C. for germ used in experimental infection", "assay_type": "cell-based", "details": "P5101, 18 h", "procedure": "as §5, §6, §7, §8"}}}
{"compound": "CCn1cc(C(=O)O)c(=O)c2cc3c(cc21)OCO3", "note": "[Oxolinic acid, oxolinic acid, reference compound]", "values": [{"measurement": "LD50", "setting": "in vivo; iv", "result": 177, "unit": "mg/kg"}, {"measurement": "LD50", "setting": "in vivo; po", "result": "> 2000", "unit": "mg/kg"}, {"measurement": "MIC", "setting": "Pr. mirabilis Nig", "result": 0.4, "unit": "µg/mL"}, {"measurement": "MIC", "setting": "S. enteritidis Danysz", "result": 0.8, "unit": "µg/mL"}, {"measurement": "MIC", "setting": "Ps. aeruginosa A.22", "result": 12.5, "unit": "µg/mL"}, {"measurement": "MIC", "setting": "Esch. coli 111 B4", "result": 0.4, "unit": "µg/mL"}, {"measurement": "MIC", "setting": "Providentia 0223", "result": 25, "unit": "µg/mL"}, {"measurement": "MIC", "setting": "B. subtilis", "result": 0.1, "unit": "µg/mL"}, {"measurement": "MIC", "setting": "Esch. coli 95 I.S.M.", "result": 0.1, "unit": "µg/mL"}, {"measurement": "MIC", "setting": "Sh. sonnei I.P.S.", "result": 0.2, "unit": "µg/mL"}, {"measurement": "MIC", "setting": "Pr. vulgaris 12-53", "result": 0.05, "unit": "µg/mL"}, {"measurement": "MIC", "setting": "Pr. morganii A.236", "result": 0.1, "unit": "µg/mL"}, {"measurement": "MIC", "setting": "Staph. 209 P", "result": 0.8, "unit": "µg/mL"}, {"measurement": "MIC", "setting": "Ps. aeruginosa 72.345", "result": 6.2, "unit": "µg/mL"}, {"measurement": "MIC", "setting": "Esch. coli 54.127 O.M.S.", "result": 0.4, "unit": "µg/mL"}, {"measurement": "MIC", "setting": "S. oranienburg 1066", "result": 25, "unit": "µg/mL"}, {"measurement": "MIC", "setting": "Staph. 9.144", "result": 0.8, "unit": "µg/mL"}, {"measurement": "MIC", "setting": "Bord. bronchis. 4.617", "result": 3.1, "unit": "µg/mL"}, {"measurement": "MIC", "setting": "Klebs. pneum. 10.031", "result": 0.1, "unit": "µg/mL"}, {"measurement": "MIC", "setting": "Arizona 6.211", "result": 0.4, "unit": "µg/mL"}, {"measurement": "MIC", "setting": "Strepto D.M. 19", "result": 25, "unit": "µg/mL"}, {"measurement": "MIC", "setting": "Serratia", "result": 0.8, "unit": "µg/mL"}, {"measurement": "MIC", "setting": "Salm. typhi 0901", "result": 0.4, "unit": "µg/mL"}, {"measurement": "ED50", "setting": "Strept. pyogenes A. 65 [1]", "result": "> 100", "unit": "mg/kg"}, {"measurement": "ED90", "setting": "Strept. pyogenes A. 65 [1]", "result": "> 100", "unit": "mg/kg"}, {"measurement": "ED50", "setting": "[2]", "result": 70.1, "unit": "mg/kg"}, {"measurement": "ED90", "setting": "[2]", "result": 142, "unit": "mg/kg"}, {"measurement": "ED50", "setting": "Staph. aureus 50,774 [3]", "result": 53.2, "unit": "mg/kg"}, {"measurement": "ED90", "setting": "Staph. aureus 50,774 [3]", "result": 111, "unit": "mg/kg"}, {"measurement": "ED50", "setting": "Escherichia coli P 5101 [4]", "result": 17, "unit": "mg/kg"}, {"measurement": "ED90", "setting": "Escherichia coli P 5101 [4]", "result": 45.1, "unit": "mg/kg"}, {"measurement": "MIC", "setting": "Strept. pyogenes A. 65 [5]", "result": 100, "unit": "µg/mL"}, {"measurement": "MIC", "setting": "[6]", "result": 12.5, "unit": "µg/mL"}, {"measurement": "MIC", "setting": "Staph. aureus 50,774 [7]", "result": 1.56, "unit": "µg/mL"}, {"measurement": "MIC", "setting": "Escherichia coli P 5101 [8]", "result": 0.2, "unit": "µg/mL"}]}
